Laboratory results reported in patent US10604524B2, “Pyrropyrimidine compounds as MNKs inhibitors” (LIFEARC, priority 2015, dated 2020).

Legend:
Experiment in all cases: Kinase selectivity screen
[1] = target: IRAK4 (Homo sapiens, UniProt Q9NWZ3); conditions: read-out: % Inhibition IRAK4
[2] = target: RPS6KA5 (Homo sapiens, UniProt O75582); conditions: read-out: % Inhibition RPS6KA5
[3] = target: RPS6KA1 (Homo sapiens, UniProt Q15418); conditions: read-out: % Inhibition RPS6KA1
[4] = target: CSNK1G1 (Homo sapiens, UniProt Q9HCP0); conditions: read-out: % Inhibition CSNK1G1
[5] = target: EEF2K (Homo sapiens, UniProt O00418); conditions: read-out: % Inhibition EEF2K
[6] = target: NUAK1 (Homo sapiens, UniProt O60285); conditions: read-out: % Inhibition NUAK1
[7] = target: KDR (Homo sapiens, UniProt P35968); conditions: read-out: % Inhibition KDR
[8] = target: RET (Homo sapiens, UniProt P07949); conditions: read-out: % Inhibition RET
[9] = target: ULK2 (Homo sapiens, UniProt Q8IYT8); conditions: read-out: % Inhibition ULK2
[10] = target: ROCK1 (Homo sapiens, UniProt Q13464); conditions: read-out: % Inhibition ROCK1
[11] = target: FYN (Homo sapiens, UniProt P06241); conditions: read-out: % Inhibition FYN
[12] = target: MTOR (Homo sapiens, UniProt P42345); conditions: read-out: % Inhibition MTOR
[13] = target: NTRK1 (Homo sapiens, UniProt P04629); conditions: read-out: % Inhibition NTRK1
Sequence of NTRK1 (P04629 33-796, species assumed): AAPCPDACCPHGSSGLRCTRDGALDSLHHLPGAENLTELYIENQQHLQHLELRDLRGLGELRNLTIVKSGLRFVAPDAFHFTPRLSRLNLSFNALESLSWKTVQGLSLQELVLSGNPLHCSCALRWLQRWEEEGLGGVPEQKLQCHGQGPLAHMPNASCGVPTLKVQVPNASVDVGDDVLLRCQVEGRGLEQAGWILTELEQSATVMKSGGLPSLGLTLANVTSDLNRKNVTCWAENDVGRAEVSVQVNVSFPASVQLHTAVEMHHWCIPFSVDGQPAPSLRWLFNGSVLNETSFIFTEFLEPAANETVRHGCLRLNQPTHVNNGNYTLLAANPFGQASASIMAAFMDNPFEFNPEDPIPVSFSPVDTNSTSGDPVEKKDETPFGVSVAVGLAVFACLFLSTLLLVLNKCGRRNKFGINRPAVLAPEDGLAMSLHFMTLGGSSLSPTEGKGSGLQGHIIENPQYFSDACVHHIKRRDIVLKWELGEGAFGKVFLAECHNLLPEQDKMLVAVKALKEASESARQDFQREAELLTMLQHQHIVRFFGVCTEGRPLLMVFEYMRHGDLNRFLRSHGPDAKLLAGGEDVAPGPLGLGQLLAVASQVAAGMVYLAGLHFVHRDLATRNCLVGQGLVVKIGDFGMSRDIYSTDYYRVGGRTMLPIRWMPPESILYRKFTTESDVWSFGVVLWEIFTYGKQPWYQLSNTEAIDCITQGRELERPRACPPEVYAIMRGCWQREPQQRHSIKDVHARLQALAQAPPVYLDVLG

[14] = target: CDK9/CCNT1 (Homo sapiens, UniProt P50750); conditions: read-out: % Inhibition CDK9/CCNT1
[15] = target: PRAK (Homo sapiens, UniProt Q8IW41); conditions: read-out: % Inhibition PRAK
[16] = target: CaMK1 (Homo sapiens, UniProt Q14012); conditions: read-out: % Inhibition CaMK1
[17] = target: ERBB4 (Homo sapiens, UniProt Q15303); conditions: read-out: % Inhibition ERBB4
[18] = target: CDK7/CCNH/MNAT1 (Homo sapiens, UniProt P50613); conditions: read-out: % Inhibition CDK7/CCNH/MNAT1
[19] = target: IGF1R (Homo sapiens, UniProt P08069); conditions: read-out: % Inhibition IGF1R
[20] = target: FGFR4 (Homo sapiens, UniProt P22455); conditions: read-out: % Inhibition FGFR4
[21] = target: MET (Homo sapiens, UniProt P08581); conditions: read-out: % Inhibition MET
[22] = target: RAF1 (Homo sapiens, UniProt P04049); conditions: read-out: % Inhibition RAF1
[23] = target: MAP2K7 (Homo sapiens, UniProt O14733); conditions: read-out: % Inhibition MAP2K7
[24] = target: AKT1 (Homo sapiens, UniProt P31749); conditions: read-out: % Inhibition AKT1
Sequence of AKT1 (P31749 whole entry, species assumed): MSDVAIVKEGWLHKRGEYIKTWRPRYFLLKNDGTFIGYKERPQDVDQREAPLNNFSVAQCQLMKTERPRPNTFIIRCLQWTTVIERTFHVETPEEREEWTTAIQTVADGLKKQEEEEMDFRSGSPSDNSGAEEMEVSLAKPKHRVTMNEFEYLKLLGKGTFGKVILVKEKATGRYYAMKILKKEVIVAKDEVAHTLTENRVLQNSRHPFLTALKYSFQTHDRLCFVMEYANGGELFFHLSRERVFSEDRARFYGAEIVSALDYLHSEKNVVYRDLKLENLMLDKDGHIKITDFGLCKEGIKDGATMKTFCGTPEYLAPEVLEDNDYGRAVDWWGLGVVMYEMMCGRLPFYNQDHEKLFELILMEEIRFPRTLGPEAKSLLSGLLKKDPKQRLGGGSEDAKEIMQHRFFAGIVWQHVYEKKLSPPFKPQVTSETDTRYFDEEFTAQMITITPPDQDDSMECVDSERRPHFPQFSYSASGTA

[25] = target: ACVR1B (Homo sapiens, UniProt P36896); conditions: read-out: % Inhibition ACVR1B
[26] = target: MST1R (Homo sapiens, UniProt Q04912); conditions: read-out: % Inhibition MST1R
[27] = target: BMX (Homo sapiens, UniProt P51813); conditions: read-out: % Inhibition BMX
[28] = target: PIP5K1C (Homo sapiens, UniProt O60331); conditions: read-out: % Inhibition PIP5K1C
Sequence of PIP5K1C (O60331 whole entry, species assumed): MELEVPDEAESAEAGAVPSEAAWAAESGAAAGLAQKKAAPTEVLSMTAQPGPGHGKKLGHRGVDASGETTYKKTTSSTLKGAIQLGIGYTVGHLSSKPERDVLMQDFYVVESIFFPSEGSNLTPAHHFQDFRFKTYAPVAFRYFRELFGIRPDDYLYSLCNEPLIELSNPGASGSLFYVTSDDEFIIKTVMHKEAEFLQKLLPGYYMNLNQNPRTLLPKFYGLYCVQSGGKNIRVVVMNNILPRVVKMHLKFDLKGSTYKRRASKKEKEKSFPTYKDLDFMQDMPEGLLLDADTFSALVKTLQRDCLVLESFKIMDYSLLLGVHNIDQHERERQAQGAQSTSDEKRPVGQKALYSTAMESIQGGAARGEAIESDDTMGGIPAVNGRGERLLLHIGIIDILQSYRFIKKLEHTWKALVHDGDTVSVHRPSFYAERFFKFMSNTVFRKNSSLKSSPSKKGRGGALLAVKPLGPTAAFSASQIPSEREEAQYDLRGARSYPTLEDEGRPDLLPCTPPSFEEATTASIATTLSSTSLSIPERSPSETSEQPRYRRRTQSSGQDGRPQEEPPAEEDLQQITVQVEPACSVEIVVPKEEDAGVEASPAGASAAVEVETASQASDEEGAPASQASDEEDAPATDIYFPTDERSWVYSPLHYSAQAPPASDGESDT

[29] = target: FGFR3 (Homo sapiens, UniProt P22607); conditions: read-out: % Inhibition FGFR3
Sequence of FGFR3 (P22607 23-806, species assumed): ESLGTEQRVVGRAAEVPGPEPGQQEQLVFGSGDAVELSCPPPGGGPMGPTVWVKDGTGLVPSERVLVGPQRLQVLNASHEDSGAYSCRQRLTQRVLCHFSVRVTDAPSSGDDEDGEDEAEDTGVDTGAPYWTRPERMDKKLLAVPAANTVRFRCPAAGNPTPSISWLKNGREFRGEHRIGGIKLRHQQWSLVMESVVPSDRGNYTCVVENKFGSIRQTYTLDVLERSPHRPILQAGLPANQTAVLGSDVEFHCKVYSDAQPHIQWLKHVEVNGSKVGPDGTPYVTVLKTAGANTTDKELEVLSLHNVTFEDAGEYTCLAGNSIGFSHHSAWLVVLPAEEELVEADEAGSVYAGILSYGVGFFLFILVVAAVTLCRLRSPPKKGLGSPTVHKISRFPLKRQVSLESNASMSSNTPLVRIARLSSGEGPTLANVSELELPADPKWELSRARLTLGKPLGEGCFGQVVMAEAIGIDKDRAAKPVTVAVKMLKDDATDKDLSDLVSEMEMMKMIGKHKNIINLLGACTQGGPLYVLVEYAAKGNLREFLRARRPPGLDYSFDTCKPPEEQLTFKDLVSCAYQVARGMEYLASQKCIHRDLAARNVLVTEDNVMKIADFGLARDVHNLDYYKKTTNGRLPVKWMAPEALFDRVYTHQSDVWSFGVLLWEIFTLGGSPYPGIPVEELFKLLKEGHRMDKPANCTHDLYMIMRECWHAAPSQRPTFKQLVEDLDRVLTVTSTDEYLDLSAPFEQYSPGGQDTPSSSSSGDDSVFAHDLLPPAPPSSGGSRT

[30] = target: DDR2 (Homo sapiens, UniProt Q16832); conditions: read-out: % Inhibition DDR2
[31] = target: AURKC (Homo sapiens, UniProt Q9UQB9); conditions: read-out: % Inhibition AURKC
[32] = target: PDPK1 (Homo sapiens, UniProt O15530); conditions: read-out: % Inhibition PDPK1
[33] = target: CDK2/CCNA2 (Homo sapiens, UniProt P24941); conditions: read-out: % Inhibition CDK2/CCNA2
[34] = target: AXL (Homo sapiens, UniProt P30530); conditions: read-out: % Inhibition AXL
Sequence of AXL (P30530 26-894, species assumed): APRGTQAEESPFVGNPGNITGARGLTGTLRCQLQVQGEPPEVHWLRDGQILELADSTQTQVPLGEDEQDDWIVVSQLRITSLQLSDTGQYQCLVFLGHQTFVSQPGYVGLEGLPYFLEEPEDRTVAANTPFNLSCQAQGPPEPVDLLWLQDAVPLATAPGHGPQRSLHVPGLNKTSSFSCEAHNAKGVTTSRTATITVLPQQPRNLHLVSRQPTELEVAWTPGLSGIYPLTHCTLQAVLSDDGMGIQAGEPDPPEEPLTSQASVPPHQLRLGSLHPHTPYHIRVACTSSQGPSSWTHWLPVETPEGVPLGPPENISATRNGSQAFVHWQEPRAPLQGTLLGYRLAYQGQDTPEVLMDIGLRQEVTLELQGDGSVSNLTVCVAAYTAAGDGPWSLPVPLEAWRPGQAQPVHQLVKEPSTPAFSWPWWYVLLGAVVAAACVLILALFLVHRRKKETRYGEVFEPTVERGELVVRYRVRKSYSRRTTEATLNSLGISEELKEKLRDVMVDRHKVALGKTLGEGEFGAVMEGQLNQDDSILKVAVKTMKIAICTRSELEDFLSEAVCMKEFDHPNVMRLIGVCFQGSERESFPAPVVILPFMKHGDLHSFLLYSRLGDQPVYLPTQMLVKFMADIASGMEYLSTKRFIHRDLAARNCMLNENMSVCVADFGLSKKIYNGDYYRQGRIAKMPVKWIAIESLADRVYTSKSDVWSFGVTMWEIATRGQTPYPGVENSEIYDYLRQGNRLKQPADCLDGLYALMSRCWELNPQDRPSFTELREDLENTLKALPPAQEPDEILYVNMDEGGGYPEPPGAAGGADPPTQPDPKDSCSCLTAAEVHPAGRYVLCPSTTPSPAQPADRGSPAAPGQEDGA

Measured: inhibition at 1 µM

Sequence of RPS6KA1 (Q15418 whole entry, species assumed): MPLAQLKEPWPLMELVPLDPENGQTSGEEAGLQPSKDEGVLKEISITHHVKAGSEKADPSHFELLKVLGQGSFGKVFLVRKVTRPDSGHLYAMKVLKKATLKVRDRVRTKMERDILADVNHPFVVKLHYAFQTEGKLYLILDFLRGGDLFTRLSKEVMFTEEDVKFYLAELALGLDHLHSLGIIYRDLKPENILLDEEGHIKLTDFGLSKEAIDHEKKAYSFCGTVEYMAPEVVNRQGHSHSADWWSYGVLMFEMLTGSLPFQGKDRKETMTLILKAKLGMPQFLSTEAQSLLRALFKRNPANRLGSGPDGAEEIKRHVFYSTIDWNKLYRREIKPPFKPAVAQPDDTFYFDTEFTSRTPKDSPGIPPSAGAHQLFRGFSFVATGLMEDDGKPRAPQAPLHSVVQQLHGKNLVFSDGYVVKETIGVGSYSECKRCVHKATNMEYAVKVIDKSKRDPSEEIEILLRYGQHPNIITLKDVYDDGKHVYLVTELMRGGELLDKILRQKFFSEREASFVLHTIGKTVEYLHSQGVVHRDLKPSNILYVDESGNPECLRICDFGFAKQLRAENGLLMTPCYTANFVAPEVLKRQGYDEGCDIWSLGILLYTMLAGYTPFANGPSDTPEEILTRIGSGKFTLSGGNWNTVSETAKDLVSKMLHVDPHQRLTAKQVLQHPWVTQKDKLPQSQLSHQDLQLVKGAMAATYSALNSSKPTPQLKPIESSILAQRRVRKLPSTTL
Sequence of IRAK4 (Q9NWZ3 whole entry, species assumed): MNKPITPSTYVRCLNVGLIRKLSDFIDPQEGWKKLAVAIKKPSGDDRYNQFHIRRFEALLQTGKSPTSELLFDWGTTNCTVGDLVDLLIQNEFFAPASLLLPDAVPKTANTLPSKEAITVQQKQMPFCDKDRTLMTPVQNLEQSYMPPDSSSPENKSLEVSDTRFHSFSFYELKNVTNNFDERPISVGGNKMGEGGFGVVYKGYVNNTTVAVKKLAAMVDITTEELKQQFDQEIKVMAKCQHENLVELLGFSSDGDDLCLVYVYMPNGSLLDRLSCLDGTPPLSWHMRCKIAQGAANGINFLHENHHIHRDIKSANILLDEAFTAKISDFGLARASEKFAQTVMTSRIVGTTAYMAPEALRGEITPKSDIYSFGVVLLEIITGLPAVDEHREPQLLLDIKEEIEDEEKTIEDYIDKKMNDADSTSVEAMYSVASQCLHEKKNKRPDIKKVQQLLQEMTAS

CC(C)Oc1cc(F)ccc1Nc1ncnc2cc(C(=O)NCCCN(C)C)n(C)c12 [Example 40, N-[3-(dimethylamino)propyl]-4-{[4-fluoro-2-(propan-2-yloxy)phenyl]amino}-5-methyl-5H-pyrrolo[3,2-d]pyrimidine-6-carboxamide]
10%: [29]
13%: [21]
1%: [8]
5%: [7] | [18]
28%: [31]
2%: [30]
6%: [28]
0%: all other assays above
